Test results: patent publication US20120316105A1, “Polymyxin Derivates Useful As Antibacterial Agents” (priority 2011, published 2012)
Where two headings read alike, the source gives them in different places. Bridge positions count the residues as written; N and C are the ends. Square brackets hold non-standard residues; d marks the D form. Peptide text beside a SMILES is read from it. * marks the point of attachment. Isonicotinoyl(2-Ph) = O=C(c1ccnc(-c2ccccc2)c1)*; Benzoyl(4-Ph) = O=C(c1ccc(-c2ccccc2)cc1)*; X26 = O=C(c1ccnc(-c2ccc(Cl)cc2)c1)*; X3 = O=C(c1ccnc(-c2cccc(Cl)c2)c1)*; dDap = NC[C@@H](N)C(=O)O; Dab = NCC[C@H](N)C(=O)O; Dap = NC[C@H](N)C(=O)O

Tests used:
[1] = tested on: PA-1646, polymyxin-resistant clinical isolate of Pseudomonas aeruginosa; type: cell-based; conditions: PA-1646, polymyxin-resistant clinical isolate of
Procedure, shortened: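 Broth dilution MIC and bactericidal (MBC) testing per CLSI methods (M7-A8, M100-S20, M26-A) against polymyxin-resistant clinical P. aeruginosa isolate PA-1646. Compounds tested as trifluoroacetate salts, one as sulfate salt; values in mg/L.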

[2] = tested on: AB-1649, polymyxin-resistant clinical isolate of Acinetobacter baumannii; type: cell-based; conditions: AB-1649, polymyxin-resistant clinical isolate of
Procedure, shortened: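 Broth dilution MIC per CLSI against the polymyxin-resistant A. baumannii isolate, 2-fold dilutions, overnight incubation, visual read of lowest concentration inhibiting growth. Run in duplicate, lower value reported when within 2-fold; MBC per CLSI M26-A guideline.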

[3] = tested on: AB-3167, clinical isolate of Acinetobacter baumannii; type: cell-based
Procedure, shortened: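 Broth dilution MIC per CLSI (M7-A8, M100-S20, M26-A for bactericidal), 2-fold dilution series, overnight incubation, visual read of lowest concentration inhibiting growth versus drug-free control. Duplicates run; lower value reported if within 2-fold, otherwise repeated. Compounds tested as trifluoroacetate salts; QC strains and reference compounds required in range.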

[4] = tested on: PA-1646, polymyxin-resistant clinical isolate of Pseudomonas aeruginosa; type: cell-based; conditions: PA-1646, polymyxin-resistant clinical isolate of; remark: listed apart in the source
Procedure, shortened: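 Broth dilution MIC per CLSI with 2-fold concentration steps, read visually after overnight incubation as lowest concentration inhibiting growth; duplicates within 2-fold, lower value reported, with QC strains and reference compounds. Compounds tested as trifluoroacetate salts, polymyxin B as sulfate.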

[5] = tested on: Pseudomonas aeruginosa strain PA01; type: cell-based; conditions: strain
Procedure, shortened: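 CLSI broth dilution against P. aeruginosa PA01 with two-fold concentration steps and overnight incubation; MIC is lowest concentration visibly inhibiting growth versus drug-free control, in mg/L. Compounds tested as trifluoroacetate salts, in duplicate, lower value reported if within 2-fold; control organisms and reference compounds included.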

[6] = tested on: AB-1649, polymyxin-resistant clinical isolate of Acinetobacter baumannii; type: cell-based; conditions: AB-1649, polymyxin-resistant clinical isolate of; remark: listed apart in the source
Procedure, shortened: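 MIC and MBC were measured by CLSI broth dilution methods (M7-A8, M100-S20, M26-A) against a polymyxin-resistant clinical isolate and reported in mg/L. Compounds were tested as trifluoroacetate salts, with one exception tested as the sulfate.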

[7] = tested on: EC-1, mouse virulent strain of Escherichia coli; type: cell-based; conditions: E. coli EC-1; overnight incubation, lower of duplicate values; trifluoroacetate salt (Example 1 and PMB sulfate)
Procedure, shortened: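 Broth dilution per CLSI with 2-fold concentration steps and overnight incubation. MIC is the lowest concentration visibly inhibiting growth versus drug-free control, run in duplicate with the lower value reported. Duplicates differing by >2-fold were repeated, and control strains and reference compounds had to fall within range.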

[8] = Cytotoxicity assay (LDH release), hRPTEC; type: cell-based, human; conditions: human
Procedure, shortened: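 hRPTEC grown 72 h in REGM, then exposed to compounds at 100, 67, 44, 30, 20 and 13 micromolar for 24 h at 37° C, 5% CO2. LDH released into supernatant measured; TC50 (micromolar) derived. Compounds tested as trifluoroacetate salts unless otherwise noted.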

[9] = tested on: KP-5016, ESBL+ clinical isolate of Klebsiella pneumoniae (SHV-5); assay: Minimum inhibitory concentration (MIC, CLSI), KP-5016; type: cell-based; conditions: K. pneumoniae KP-5016; overnight incubation, lower of duplicate values; trifluoroacetate salt (Example 1 and PMB sulfate)
Protocol: (§1) Minimum bactericidal concentration (MBC, mg/L), minimum inhibitory concentration (MIC, mg/L), and human renal proximal tubule epithelial cell line cytotoxicity concentration 50% (hRPTEC, TC50, micromolar) for compounds of Formula I are listed in Table 2. The compounds of Formula I were tested as the corresponding trifluoroacetate salt except for Example 1 which was tested as the sulfate salt. For Table 2 below: PMB=polymyxin B as the sulfate salt (Bedford Laboratories, pharmaceutical grade); PMB1=polymyxin B1 as the trifluoroacetate salt; Nona=polymyxin B nonapeptide as the trifluoroacetate salt. PMB1 and Nona were prepared using the solid phase methodology described in the experimental section herein.
(§2) The in vitro antibacterial activity of compounds of Formula I was evaluated by MIC testing according to Clinical and Laboratory Standards Institute (CLSI). See: Clinical and Laboratory Standards Institute. Methods for Dilution Antimicrobial Susceptibility Tests for Bacteria that Grow Aerobically; Approved Standard-Eighth Edition. CLSI document M7-A8 [ISBN 1-56238-689-1]. Clinical and Laboratory Standards Institute, 940 West Valley Road, Suite 1400, Wayne, Pa. 19087-1898 USA, 2006; also Clinical and Laboratory Standards Institute. Performance Standards for Antimicrobial Susceptibility Testing; Twentieth Informational Supplement. CLSI document M100-S20 [ISBN 1-56238-716-2]. Clinical and Laboratory Standards Institute. Methods for Determining Bactericidal Activity of Antimicrobial Agents; Approved Guideline. CLSI document M26-A (ISBN 1-56238-384-1). CLSI, 940 West Valley Road, Suite 1400, Wayne, Pa. 19087-1898 USA, 1999.
(§3) The MIC determination is a standard laboratory method for evaluating the antibacterial activity of a compound. The MIC represents the lowest drug concentration that inhibits visible growth of bacteria following overnight incubation. […] Typically, the drug concentration range is broken down into 2-fold increments (e.g. 0.06 mg/L, 0.12 mg/L, 0.25 mg/L, 0.50 mg/L, 1.0 mg/L, etc.) and the various drug concentrations are all individually incubated overnight with approximately the same number of bacteria. The MIC is then determined by visually inspecting the drug effect at each concentration, and identifying the lowest drug concentration that has inhibited bacterial growth as compared to the drug free control. Typically, bacteria continue to grow at drug concentrations lower than the MIC and don't grow at concentrations at and above the MIC.
(§4) The MIC values described in Table 2 below were derived from assays wherein each test compound was evaluated in duplicate. In cases where the duplicate values varied by 0-2-fold, the lower of the two values was reported below. Generally speaking, if the duplicate values varied by more than 2-fold, the assay was considered non-valid and was repeated until the variation between duplicate runs was ≦2-fold. In line with the CLSI guidelines referred to above, both control organisms and reference compounds were utilized in each MIC assay to provide proper quality control. MIC values generated with these control organisms and reference compounds were required to fall within a defined range for the assay to be considered valid and be included herein. Those skilled in the art will recognize that MIC values can and do vary from experiment to experiment. Generally speaking, it should be recognized that MIC values often vary +/−2-fold from experiment to experiment. While a single MIC is reported for each compound and each microorganism, the reader should not conclude that each compound was only tested once. Several of the compounds were subjected to multiple tests. The data reported in Table 2 is reflective of the compounds relative activity and different MICs may have been generated on these occasions in line with the guidelines described above.
The following bacterial strains were used in these MIC determinations: […]

[10] = tested on: KP-3700, ESBL+ clinical isolate of Klebsiella pneumoniae; assay: Minimum inhibitory concentration (MIC, CLSI), KP-3700; type: cell-based; conditions: K. pneumoniae KP-3700; overnight incubation, lower of duplicate values; trifluoroacetate salt (Example 1 and PMB sulfate)
Protocol: as §1, §2, §3, §4
The following bacterial strains were used in these MIC determinations:
KP-3700 is an ESBL+clinical isolate of Klebsiella pneumoniae obtained in 2006; and […]

Compound	PA-1646 MBC [1] [mg/L]	AB-1649 MIC [2] [mg/L]	AB-3167 MIC ([3]; AB-3167, clinical isolate of) [mg/L]	PA-1646 MIC [4] [mg/L]	PA01 MIC [5] [mg/L]	AB-1649 MBC [6] [mg/L]	EC-1 MIC [7] [mg/L]	CC50 at 24 h [8] [µM]	KP-5016 MIC [9] [mg/L]	KP-3700 MIC [10] [mg/L]	AB-3167 MIC ([3]; A. baumannii AB-3167, overnight incubation, lower of duplicate values, trifluoroacetate salt (Example 1 and PMB sulfate)) [mg/L]
CC(C)C[C@@H]1NC(=O)[C@@H](Cc2ccccc2)NC(=O)[C@H](CCN)NC(=O)[C@@H](NC(=O)[C@H](CN)NC(=O)[C@@H](NC(=O)[C@H](CCN)NC(=O)c2ccnc(-c3ccc(Cl)cc3)c2)[C@@H](C)O)CCNC(=O)[C@H]([C@@H](C)O)NC(=O)[C@H](CCN)NC(=O)[C@H](CCN)NC1=O [Example 44] (X26-[Dab]T[Dap][Dab][Dab][dF]L[Dab][Dab]T; lactam 4-C)	1	1	0.25	1	0.5	1	0.25	30			
CC(C)C[C@@H]1NC(=O)[C@@H](Cc2ccccc2)NC(=O)[C@H](CCN)NC(=O)[C@@H](NC(=O)[C@H](CN)NC(=O)[C@@H](NC(=O)[C@H](CCN)NC(=O)c2ccc(-c3ccccc3)cc2)[C@@H](C)O)CCNC(=O)[C@H]([C@@H](C)O)NC(=O)[C@H](CCN)NC(=O)[C@H](CCN)NC1=O [Example 45] ({Benzoyl(4-Ph)}-[Dab]T[Dap][Dab][Dab][dF]L[Dab][Dab]T; lactam 4-C)	1	1	0.25	0.5	0.5	1	0.25	28			
CC(C)C[C@@H]1NC(=O)[C@@H](Cc2ccccc2)NC(=O)[C@H](CCN)NC(=O)[C@@H](NC(=O)[C@H](CN)NC(=O)[C@H](CO)NC(=O)[C@H](CCN)NC(=O)c2ccnc(-c3ccccc3)c2)CCNC(=O)[C@H]([C@@H](C)O)NC(=O)[C@H](CCN)NC(=O)[C@H](CCN)NC1=O [Example 46] ({Isonicotinoyl(2-Ph)}-[Dab]S[Dap][Dab][Dab][dF]L[Dab][Dab]T; lactam 4-C)		4	1	64	0.5		0.25	98	64	0.5	
CC(C)C[C@@H]1NC(=O)[C@@H](Cc2ccccc2)NC(=O)[C@H](CCN)NC(=O)[C@@H](NC(=O)[C@@H](CN)NC(=O)[C@@H](NC(=O)[C@H](CCN)NC(=O)c2ccnc(-c3ccccc3)c2)[C@@H](C)O)CCNC(=O)[C@H]([C@@H](C)O)NC(=O)[C@H](CCN)NC(=O)[C@H](CCN)NC1=O [Example 47] ({Isonicotinoyl(2-Ph)}-[Dab]T[dDap][Dab][Dab][dF]L[Dab][Dab]T; lactam 4-C)	2	4	0.5	1	0.5	4	0.25	100	8	0.25	
CC[C@H](C)[C@@H]1NC(=O)[C@@H](Cc2ccccc2)NC(=O)[C@H](CCN)NC(=O)[C@@H](NC(=O)[C@H](CN)NC(=O)[C@@H](NC(=O)[C@H](CCN)NC(=O)c2ccnc(-c3cccc(Cl)c3)c2)[C@@H](C)O)CCNC(=O)[C@H]([C@@H](C)O)NC(=O)[C@H](CCN)NC(=O)[C@H](CCN)NC1=O [Example 48] (X3-[Dab]T[Dap][Dab][Dab][dF]I[Dab][Dab]T; lactam 4-C)	2	0.5	0.25	1	0.5	0.5	0.25	33	32	0.25	
CC[C@H](C)[C@@H]1NC(=O)[C@@H](Cc2ccccc2)NC(=O)[C@H](CCN)NC(=O)[C@@H](NC(=O)[C@H](CN)NC(=O)[C@@H](NC(=O)[C@H](CCN)NC(=O)c2ccnc(-c3ccccc3)c2)[C@@H](C)O)CCNC(=O)[C@H]([C@@H](C)O)NC(=O)[C@H](CCN)NC(=O)[C@H](CCN)NC1=O [Example 49] ({Isonicotinoyl(2-Ph)}-[Dab]T[Dap][Dab][Dab][dF]I[Dab][Dab]T; lactam 4-C)	8	0.25		4	0.5	0.25	0.125	> 100	16	0.25	0.125
